Experimental data as given in PMC12636028, “Rate-Tunable, Metal-Mediated Amide Bond Cleavage for the Controlled Release of Pharmaceuticals” (Journal of the American Chemical Society, 2025).
Like-named read-outs stand apart in the source and are kept apart here.

What was measured:
[1] = cleavage assay of cold (natural metal) model tripeptide complexes, monitored by HPLC; type: physicochemical; conditions: for kobs: Ga complex, pseudo first-order
Source text: Following our previous work focused on N, O acyl shift compatible chelate conjugates, we originally sought to accelerate amide bond cleavage by N-methylation, to enhance the peptide’s leaving group character. We initiated the study by synthesis of a model tripeptide sequence which is capped at the N-terminus by the aza-macrocyclic 1,4,7-triazacyclononane-1,4,7-triacetic acid (NOTA) chelator previously identified as compatible with MMAAC. To this end, tripeptides with the sequence NO2A-X-G-W-NH2 (where X represents the variable complex adjacent amino acid) were constructed. Tryptophan (W) was incorporated as a spectroscopic handle for HPLC monitoring due to its characteristic absorbance at 280 nm, while glycine (G) was included as a short spacer amino acid to minimize the steric influence of W on the metal chelate. Subsequently, chelation with Ga^3+ yielded the corresponding model tripeptide metal complex, [Ga(NO2A)]^+-X-G-W-NH2. The Ga^3+ ion was selected as the gold-standard metal ion since it effectively triggered bond cleavage in the Ser model tripeptide in prior studies, but also formed a thermodynamically and kinetically inert, in vivo compatible metal complex. Following successful complexation and purification, the pH and reaction temperature of the metal complex solution were adjusted to pH 7.4 and 80 °C to initiate cleavage at a readily observable rate (Figure A). Reaction progress was monitored and quantified using high-performance liquid chromatography and mass spectrometry (HPLC-MS, Figure B,C). In the absence of a metal ion, all model tripeptides remained intact at all conditions and temperatures tested (Figures S113–S121). […] In the liquid chromatogram, a second peak with a longer retention time, with the same mass as the reactant, was observed. Previously, we hypothesized that this peak correlated to an intramolecular rearrangement prior to the subsequent amide bond cleavage as part of the N, O-acyl shift reaction.
3 Complex synthesis and characterization
3.1 General Complexation Protocol and Cleavage Assay Procedure
A 5 mg aliquot of the compound, 10-25, was dissolved in 500 μL of room-temperature distilled water.
Two equivalents of the natGa3+salt were added to the solution, which was left to react for 1 hour under room temperature. Full complexation was confirmed by LCMS. The complex was then purified via Sep-Pak C18 short cartridge. The concentration was determined by ICP-OES. The complexes were further characterized via HPLC and HR-ESI-MS.
Cleavage of the cold model tripeptide complexes (0.75 mM, determined by ICP-OES) was observed under 80 °C and pH 7.4. Aqueous buffer solutions were prepared using 10 mM NaOAc (pH 4.5), 10 mM […]
The complex was formed in pH 4.5 10 mM NaOAc buffer under room temperature. An aliquot of the complex was placed in an aqueous solution of the desired pH and incubated for 24 hours at 80 °C. The reaction was monitored via analytical HPLC (Method A). […]
natGallium 2,2'-(7-(2-(benzylamino)-2-oxoethyl)-1,4,7-triazonane-1,4-diyl)diacetic acid, Ga(26). […]
The concentration of Ga(NO3)3 was determined by ICP-OES. The pH of the solution was adjusted to pH = 5 by adding 4 equivalents of 1 M KOH solution. […]
natGallium 2,2'-(7-(2-(benzyl(methyl)amino)-2-oxoethyl)-1,4,7-triazonane-1,4-diyl)diacetic acid, [Ga(27)]ClO4. A 15 mg aliquot of compound 27 was dissolved in 500 μL of room temperature distilled […]
water. […]

[2] = type: in vitro ADME; conditions: mouse, plasma
Source text: (§1) The cleavage of the radiolabeled conjugates was monitored
(§2) tube. […] After centrifugation at […]

[3] = type: physicochemical; conditions: buffer, pH 7.4
Source text: as §1, §2

[4] = for half-life of model tripeptide: buffer, pH 7.4; for autolytic release of [67Ga]Ga(NOTA): 67Ga-radiolabeled
Experimental: 4.1 Radiolabeling with 68Ga and Cleavage Assay in HEPES buffer
68Ga-chloride was obtained from the University of Wisconsin Radiopharmaceutical Production Facility, at
an average specific activity of 20 mCi/mL. For radio-labeling of model tripeptides and Ahx-KuE peptide
conjugates, a 35 μL aliquot containing 0.7 mCi of 68GaCl3 was added to the ligand (10 nmol, 265 µL) in
0.067 M of sodium acetate (NaOAc) buffer pH 4.5. Radiolabeling was completed after 15 minutes at
room temperature. The pH of the solution was then adjusted to 7.4 by pH 7.4 1 M HEPES buffer.
radiolabeled conjugates were further characterized with radio-HPLC; if the radiochemical yield was
<98%, a chromatographic purification of the crude radiolabeling mixture was performed. The cleavage of
the radiolabeled conjugates was monitored via radio-HPLC at 80 °C and pH 7.4.
67Ga-citrate was purchased from Jubilant Radiopharma at an average specific activity of 140.0 MBq/mL.
The 67Ga-citrate solution was first converted to 67GaCl using an established solid phase extraction
protocol. The resulting converted 67GaCl3 fraction with the specific activity of 962 MBq/mL was used for
radiolabeling. For radio-labeling of model tripeptides and Ahx-KuE peptide conjugates, a 25 μL aliquot
containing 0.45 mCi of 67GaCl3 was added to the ligand (10 nmol, 110 µL) in 0.15 M of sodium acetate
(NaOAc) buffer pH 4.5. Radiolabeling was completed after 10 minutes at room temperature. The pH of
the solution was then adjusted to 7.4 by adding pH 7.4 1 M HEPES buffer (final concentration: 0.25 M).
The radiolabeled conjugates were further characterized with radio-HPLC; if the radiochemical yield was
the radiolabeled conjugates was monitored via radio-HPLC at 37 °C and 80 °C at pH 7.4.
For radio-labeling of model tripeptides and Ahx-KuE peptide conjugates, a 25 μL aliquot containing 0.3
mCi of 67GaCl3 was added to the ligand (10 nmol, 110 µL) in 0.15 M of sodium acetate (NaOAc) buffer
pH 4.5. Radiolabeling was completed after 10 minutes at room temperature. The radiolabeled complexes
were further characterized by radio-HPLC. The pH of the solution was then adjusted to 7.4 by adding pH
7.4 1M HEPES buffer. Into the buffered mixture was added equal volume of mouse plasma (buffered
radiolabeled complex : mouse plasma 1:1). The cleavage of the radiolabeled conjugates was monitored
via radio-HPLC at 37 °C. At each time point, an aliquot of 20 – 40 µL sample was removed from the
tube. Plasma protein was precipitated by adding 20 – 40 µL of cold acetonitrile. After centrifugation at
4000 rpm for 10 minutes, the supernatant was collected and diluted in 40 – 70 µL H2O for radio-HPLC

[5] = cleavage assays in H2O and D2O for kinetic isotopic effect; type: physicochemical; conditions: Ga complex 0.75 mM, pH 7.4 HEPES, 80 °C
Source text: Therefore, we conducted additional Kinetic isotopic effect (KIE) measurements for Met (15) and ^NMeMet (18) conjugates, which were chosen to avoid alternative reaction mechanisms. Our experiments determined KIE values (1.46 for Met, 2.81 for ^NMeMet) that imply a secondary KIE, where the proton transfer is not rate-limiting (Figures S262–S265). […] Reaction rates in phosphate buffered saline (PBS) were accelerated, motivating investigation of biologically relevant systems.
5.3 Cleavage assays in H2O and D2O for kinetic isotopic effect measurement Cold cleavage assays of [Ga(15)]+ were conducted in H2O and D2O to investigate the kinetic isotopic effects. In an Eppendorf tube, Ga complexes (0.75 mM) were initially prepared in H2O according to general complexation protocol Section 3.1. The solvent was lyophilized, and the complexes were redissolved in D2O. To minimize residual H2O, the D2O was lyophilized and redissolved three times. The Ga complexes were then redissolved in D2O to a final concentration of 0.75 mM. The solution was buffered to pH 7.4 by adding pH 7.4 HEPES buffer. Cleavage reactions were performed at 80 °C and monitored by analytical HPLC.
Figure S262. Schematic description of preparation and direct complexation procedure of [natGa(15)]+.
Analytical HPLC chromatograms showing autolytic release of the product, natGa-NOTA, in H2O. The kinetics data was fit using Yt = -kt+Y0 in Excel, where Yt represents the ln([concentration of intact species]) in mM, k represents the pseudo first-order reaction rate in hour-1, t represents the incubation time in hour, and Y0 presents the ln([initial concentration of intact species]) in mM.
(1 picture or pasted object on this page, not shown here)
Cold cleavage assays of [Ga(19)]+ were conducted in H2O and D2O to investigate the kinetic isotopic […]
Figure S264. Schematic description of preparation and direct complexation procedure of [natGa(19)]+.

Question: For “68Gallium 2,2'-(7-(2-(((2R,3S)-1-((2-(((S)-1-amino-3-(1H-indol-3-yl)-1-oxopropan-2-yl)amino)-2-oxoethyl)amino)-3-hydroxy-1-oxobutan-2-yl)amino)-2-oxoethyl)-1,4,7-triazonane-1,4-diyl)diacetate [[Ga(14)]+]”, which “cleavage after 6 h” value ([1]; natGa complex, pH 7.4, 80 °C) is on record?
Answer: Its value is 50%.

Question: For “68Gallium 2,2'-(7-(2-(((R)-1-((2-(((S)-1-amino-3-(1H-indol-3-yl)-1-oxopropan-2-yl)amino)-2-oxoethyl)amino)-1-oxopropan-2-yl)amino)-2-oxoethyl)-1,4,7-triazonane-1,4-diyl)diacetate [[Ga(12)]+]”, which “cleavage after 6 h” value ([1]; natGa complex, pH 7.4, 80 °C) is on record?
Answer: The value was 20%.

Question: For “68Gallium 2,2'-(7-(2-(((R)-1-((2-(((S)-1-amino-3-(1H-indol-3-yl)-1-oxopropan-2-yl)amino)-2-oxoethyl)amino)-3-hydroxy-1-oxopropan-2-yl)(methyl)amino)-2-oxoethyl)-1,4,7-triazonane-1,4-diyl)diacetate [[Ga(16)]+]”, which “cleaved after 1 h” value ([1]; natGa complex, pH 7.4, 80 °C, after 1 h) is on record?
Answer: Its value is 100%.

Question: What about the “half-life of model tripeptide” value [2] of the same substance?
Answer: Its value is 6.12 h.

Question: And the “half-life of model tripeptide” value [3]?
Answer: Its value is 0.22 h.

Question: What about the “half-life of model tripeptide” value [4] of the same substance?
Answer: Its value is 3.65 h.

Question: Which “half-life of model tripeptide” value [2] does the source give for “68Gallium 2,2'-(7-(2-(((R)-1-((2-(((S)-1-amino-3-(1H-indol-3-yl)-1-oxopropan-2-yl)amino)-2-oxoethyl)amino)-3-hydroxy-1-oxopropan-2-yl)amino)-2-oxoethyl)-1,4,7-triazonane-1,4-diyl)diacetate [[Ga(13)]+]” here?
Answer: Its value is 182 h.

Question: And the “half-life of model tripeptide” value [3]?
Answer: Its value is 5.20 h.

Question: What about the “half-life of model tripeptide” value [4] of the same substance?
Answer: The value was 365 h.

Question: With “68Gallium 2,2'-(7-(2-(((R)-1-((2-(((S)-1-amino-3-(1H-indol-3-yl)-1-oxopropan-2-yl)amino)-2-oxoethyl)amino)-4-(methylthio)-1-oxobutan-2-yl)(methyl)amino)-2-oxoethyl)-1,4,7-triazonane-1,4-diyl)diacetate [[Ga(18)]+]” as the substance, how does the krel (relative rate enhancement versus 25 mM pH 7.4 HEPES) ([1]; 25 mM HEPES, pH 7.4, 80 °C) read?
Answer: The krel (relative rate enhancement versus 25 mM pH 7.4 HEPES) was 1.

Question: And the krel (relative rate enhancement versus 25 mM pH 7.4 HEPES) ([1]; 25 mM PBS, pH 7.4, 80 °C)?
Answer: Its krel (relative rate enhancement versus 25 mM pH 7.4 HEPES) is 4.4.

Question: And the krel (relative rate enhancement versus 25 mM pH 7.4 HEPES) ([1]; 25 mM PIPES, pH 7.4, 80 °C)?
Answer: Its krel (relative rate enhancement versus 25 mM pH 7.4 HEPES) is 1.13.

Question: And the krel (relative rate enhancement versus 25 mM pH 7.4 HEPES) ([1]; 250 mM HEPES, pH 7.4, 80 °C)?
Answer: The krel (relative rate enhancement versus 25 mM pH 7.4 HEPES) was 2.44.

Question: What about the kobs ([1]; 25 mM HEPES, pH 7.4, 80 °C) of the same substance?
Answer: Its kobs is 0.45 h⁻¹.

Question: And the kobs ([1]; 25 mM PBS, pH 7.4, 80 °C)?
Answer: Its kobs is 1.98 h⁻¹.

Question: And the kobs ([1]; 25 mM PIPES, pH 7.4, 80 °C)?
Answer: The kobs was 0.51 h⁻¹.

Question: And the kobs ([1]; 250 mM HEPES, pH 7.4, 80 °C)?
Answer: Its kobs is 1.10 h⁻¹.

Question: What about the “half-life of model tripeptide” value [2] of the same substance?
Answer: Its value is 151 h.

Question: And the “half-life of model tripeptide” value [3]?
Answer: The value was 0.92 h.

Question: And the “pseudo first-order reaction rate in D2O” value ([5]; D2O)?
Answer: The value was 0.16 h⁻¹.

Question: What about the “pseudo first-order reaction rate in H2O” value ([5]; H2O) of the same substance?
Answer: Its value is 0.45 h⁻¹.

Question: What about the “KIE (kinetic isotopic effect)” value ([5]; H2O vs D2O) of the same substance?
Answer: Its value is 2.81.

Question: And the “half-life of model tripeptide” value [4]?
Answer: Its value is 28.1 h.

Question: For “68Gallium (R)-2,2'-(7-(2-((2-((2-((1-amino-3-(1H-indol-3-yl)-1-oxopropan-2-yl)amino)-2-oxoethyl)amino)-2-oxoethyl)amino)-2-oxoethyl)-1,4,7-triazonane-1,4-diyl)diacetate [[Ga(10)]+]”, which “hydrolysis of the Ga complex” value ([1]; pH 4.5, 80 °C) is on record?
Answer: Its value is “hydrolyzed”.

Question: And the “hydrolysis of the Ga complex” value ([1]; pH > 5, 80 °C)?
Answer: Its value is “inert”.

Question: And the “half-life of model tripeptide” value [2]?
Answer: Its value is “not observed”.

Question: And the “half-life of model tripeptide” value [3]?
Answer: The value was “not obser ved”.

Question: And the “autolytic release of [67Ga]Ga(NOTA)” value ([4]; 37 °C and pH 7.4)?
Answer: Its value is “no significant autolytic release”.

Question: And the “autolytic release of [67Ga]Ga(NOTA)” value ([4]; 80 °C and pH 7.4)?
Answer: Its value is “no significant autolytic release”.

Question: And the “half-life of model tripeptide” value [4]?
Answer: Its value is “not observed”.
